Our source for the inhibition values is patent US20250145601A1, “NOVEL BICYCLIC COMPOUNDS AS RAD51 INHIBITORS” (SATYA THERAPEUTICS, INC., priority 2022, published 2025).

Broadly, the inhibition is the drop in the measured response relative to a control, in per cent. Low readings indicate a weak effect, high ones a strong effect.

The structures appear in SMILES notation.

In this assay the test system is MDA MB 231 cells. Briefly: Antiproliferation assay in MDA MB 231 cells (Cell Titer Glo). The class given is cell-based. As to conditions: Homo sapiens, MDA-MB-231, 216 h, MDAMB231 cell line, 9 day treatment, racemic compounds (Table 2). Summed up:
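Treated for 9 days in total with rising doses, MDA MB 231 cells (250/well, 37° C, 5% CO2) got fresh compound on day 5. Viability by Cell Titer Glo luminescence (ATP), with cell-free wells subtracted as blank.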
In the case of `CCC(=O)N1N=C(c2c(C)c3ccc(N4CCOCC4)cc3[nH]c2=O)CC1c1ccc(C)cc1` (centres unmarked) [Example 77, 4-methyl-7-morpholino-3-(1-propionyl-5-(p-tolyl)-4,5-dihydro-1H-pyrazol-3-yl)quinolin-2(1H)-one], the inhibition at 10 µM is ≥ 50%.
For the molecule `CCC(=O)N1N=C(c2c(C)c3cc(Cl)ncc3[nH]c2=O)CC1c1ccc(C)cc1` (centres unmarked) [Example 79, 6-chloro-4-methyl-3-(1-propionyl-5-(p-tolyl)-4,5-dihydro-1H-pyrazol-3-yl)-1,7-naphthyridin-2(1H)-one], the inhibition at 10 µM was ≥ 50%.
As to `CCC(=O)N1N=C(c2c(C)c3cc(C)ncc3[nH]c2=O)CC1c1ccc(C)cc1` (centres unmarked) [Example 81, 4,6-dimethyl-3-(1-propionyl-5-(p-tolyl)-4,5-dihydro-1H-pyrazol-3-yl)-1,7-naphthyridin-2(1H)-one], the inhibition at 10 µM is < 50%.
Take `CCC(=O)N1N=C(c2c(C)c3ccc(F)cc3[nH]c2=O)CC1c1ccc(C)cc1` (centres unmarked) [Example 83, 7-fluoro-4-methyl-3-(1-propionyl-5-(p-tolyl)-4,5-dihydro-1H-pyrazol-3-yl)quinolin-2(1H)-one]: the inhibition at 10 µM is ≥ 50%.
As to `CCC(=O)N1N=C(c2c(C)c3ccc(C)nc3[nH]c2=O)CC1c1ccc(C)cc1` (centres unmarked) [Example 84, 4,7-dimethyl-3-(1-propionyl-5-(p-tolyl)-4,5-dihydro-1H-pyrazol-3-yl)-1,8-naphthyridin-2(1H)-one], the inhibition at 10 µM was ≥ 50%.
Consider `CCC(=O)N1N=C(c2c(C)c3cnccc3[nH]c2=O)CC1c1ccc(C)cc1` (centres unmarked) [Example 85, 4-methyl-3-(1-propionyl-5-(p-tolyl)-4,5-dihydro-1H-pyrazol-3-yl)-1,6-naphthyridin-2(1H)-one], for which the inhibition at 10 µM was ≥ 50%.
For `CCC(=O)N1N=C(c2c(C)c3ccc(N4CCOCC4)nc3[nH]c2=O)CC1c1ccc(C)cc1` (centres unmarked) [Example 86, 4-methyl-7-morpholino-3-(1-propionyl-5-(p-tolyl)-4,5-dihydro-1H-pyrazol-3-yl)-1,8-naphthyridin-2(1H)-one] the value was < 50%; for `CCC(=O)N1N=C(c2c(C)c3ccc(OCCOC)nc3[nH]c2=O)CC1c1ccc(C)cc1` (centres unmarked) [Example 87, 7-(2-methoxyethoxy)-4-methyl-3-(1-propionyl-5-(p-tolyl)-4,5-dihydro-1H-pyrazol-3-yl)-1,8-naphthyridin-2(1H)-one], ≥ 50%.
